Source: patent US20230067159A1, “ROR-GAMMA-T INHIBITOR, PREPARATION METHOD THEREOF AND USE THEREOF” (priority 2020, published 2023)

Legend:
[1] = Pharmacokinetic evaluation I in ICR mice; type: in vivo; conditions: mouse, plasma, po; for bioavailability: p.o. 5 mg/kg, i.v. 1 mg/kg, read-out: Oral bioavailability (F); for AUC(0-t) / Cmax / half-life: 5 mg/kg
Experimental: Biological Example 2 Pharmacokinetic Evaluation I
ICR mice were weighed after an overnight fast for 15 h, and then randomly divided into groups according to body weight. The test compounds were formulated in a vehicle of 10% DMSO 10% kolliphor HS15^+ 80% Saline. For the test group administered intravenously (indicated by i.v.), the test animals were administered a dose of 1 mg/kg; for the test group administered by oral administration (indicated by p.o.), the test animals were administered a dose of 5 mg/kg. Then, at time points 0, 0.083 (intravenous injection group only), 0.25, 0.5, 1.0, 2.0, 5.0, 7.0 and 24 h, venous blood (approximately 0.2 mL) was collected and placed in an EDTAK2 anticoagulation tube, then centrifuged at 11,000 rpm for 2 min. Plasma was collected and stored at −20° C. or −70° C. until LC/MS/MS analysis. The drug concentration in plasma was measured at each time point, and the pharmacokinetic parameters were calculated according to the drug concentration-time curve.

[2] = Stability in human liver microsomes; type: in vitro ADME; conditions: pH 7.4; for half-life at 1.5 μM: human liver microsomes 0.5 mg protein/mL, compound 1.5 μM, NADPH, 37° C., read-out: Half-life t1/2; for CLint scaled at 1.5 μM: human liver microsomes, inferred in vivo intrinsic hepatic clearance rate
Experimental: (§1) Biological Example 4 Stability of the Compounds of the Present Invention in Human and Rat Liver Microsomes
(§2) Human or rat liver microsomes were incubated in double wells in polypropylene tubes. A typical incubation mixture included human or rat liver microsomes (final concentration: 0.5 mg protein/mL), target compound (final concentration: 1.5 μM), and K-phosphate buffered solution (containing […] EDTA, 100 mM, pH=7.4) in a total volume of 30 μL. Compounds were dissolved in DMSO and diluted with K-phosphate buffered solution to give a final working solution concentration of 30 μM. After 10 min of pre-incubation, 25 μL of test compound or positive control solution was transferred to the microsomal solution. The mixture was mixed well and 30 μL of the mixture was immediately pipetted, ice-cold acetonitrile was added, then 15 μL of NADPH was added as T0. 15 μL of NADPH (final concentration: 2 mM) was added to 30 μL of the mixture for the enzymatic reaction, and the entire experiment was carried out in an incubation tube at 37° C. At various time points (0, 20 and 60 min), the reaction was stopped by adding 150 μL of acetonitrile (with internal standard). The protein was removed by centrifugation at 4000 rpm for 10 min, and the supernatant was collected and analyzed by LC-MS/MS.
(§3) For each reaction, the concentration of compound in the incubation of human or rat liver microsomes was plotted (expressed as a percentage) as a percentage relative to the zero time point to infer in vitro metabolic half-life and in vivo intrinsic hepatic clearance rate.

[3] = Stability in rat liver microsomes; type: in vitro ADME; conditions: pH 7.4; for half-life at 1.5 μM: rat liver microsomes 0.5 mg protein/mL, compound 1.5 μM, NADPH, 37° C., read-out: Half-life t1/2; for CLint scaled at 1.5 μM: rat liver microsomes, inferred in vivo intrinsic hepatic clearance rate
Experimental: as §1, §2, §3

RORγ = molecular target: T1, RORγ (Homo sapiens, UniProt P51449); assay: Fluorescence resonance energy transfer (FRET) test, B-RORγ LBD / Biotin-SRC1; type: biochemical
T1 construct: The concentration of B-RORγ LBD was 40 nM
T1 sequence (P51449 269-508 limits assumed): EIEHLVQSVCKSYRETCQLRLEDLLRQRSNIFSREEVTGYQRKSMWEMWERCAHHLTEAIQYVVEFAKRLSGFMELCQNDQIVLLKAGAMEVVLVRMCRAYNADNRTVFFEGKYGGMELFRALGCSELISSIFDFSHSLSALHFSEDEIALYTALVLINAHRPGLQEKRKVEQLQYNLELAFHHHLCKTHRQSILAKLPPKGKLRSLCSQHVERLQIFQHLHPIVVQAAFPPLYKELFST
Procedure, shortened: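 TR-FRET coactivator recruitment: biotinylated RORγ LBD (40 nM, 2× stock) on SA-APC with biotinylated SRC1 peptide (40 nM, 2× stock) on SA-Eu, in HEPES pH 7.4, 100 mM NaCl, 0.01% BSA, 10 mM DTT. Compounds in 11-point 3-fold DMSO series; 1 h room temperature. 665/615 ratio normalised to DMSO (Min) and 10 μM SRC (Max).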

Row | SMILES | bioavailability [1] [%] | AUC(0-t) [1] [µM·h] | Cmax [1] [nM] | half-life [1] [h] | half-life at 1.5 μM [2] [h] | CLint scaled at 1.5 μM [2] [mL/min/kg] | half-life at 1.5 μM [3] [h] | CLint scaled at 1.5 μM [3] [mL/min/kg] | IC50 (RORγ) [nM]
1 | CCS(=O)(=O)c1ccc([C@H](CCO)NC(=O)c2ccc(N3C[C@@H](Oc4ccc(C(F)(F)F)cc4)C[C@H]3COC(F)F)cc2)cc1 [Example 91] | 42 | 21 | 1900 | 7.6 | 6.93 | 4.2 | 2.37 | 38 | 
2 | CCS(=O)(=O)c1ccc([C@H](CO)NC(=O)c2ccc(N3C[C@@H](Oc4ccc(C(F)(F)F)cc4)C[C@H]3COC(F)F)cc2)cc1 [Example 39] | 35 | 11.4 | 1500 | 3.9 | 3.53 | 8.2 | 5.62 | 7.4 | 3
3 | CCS(=O)(=O)c1ccc([C@H](CCO)NC(=O)c2ccc(N3C[C@@H](Oc4ccc(OC(F)(F)F)cc4)C[C@H]3CF)cc2)cc1 [Example 117, N—((S)-1-(4-(ethylsulfonyl)phenyl)-3-hydroxypropyl)-4-((2S,4S)-2-(fluoromethyl)-4-(4-(trifluoromethoxy)phenoxy)pyrrolidin-1-yl)benzamide] |  |  |  |  |  |  | 6.12 | 3.8 | 14
4 | CCS(=O)(=O)c1ccc([C@H](CCO)NC(=O)c2ccc(N3C[C@@H](Oc4ccc(OC(F)(F)F)cc4)C[C@H]3COC(F)F)cc2)cc1 [Example 119, 4-((2S,4S)-2-((difluoromethoxy)methyl)-4-(4-(trifluoromethoxy)phenoxy)pyrrolidin-1-yl)-N—((S)-1-(4-(ethylsulfonyl)phenyl)-3-hydroxypropyl)benzamide] | 71 | 28.5 | 2380 | 6.5 | 5.25 | 4.4 | 7.17 | 3.2 | 9.2
5 | CCS(=O)(=O)c1ccc([C@H](CO)NC(=O)c2ccc(N3C[C@@H](Oc4ccc(C(F)(F)F)cc4)C[C@H]3COC(F)(F)F)cc2)cc1 [Example 48, N—((R)-1-(4-(ethylsulfonyl)phenyl)-2-hydroxyethyl)-4-((2S,4S)-2-((trifluoromethoxy)methyl)-4-(4-(trifluoromethyl)phenoxy)pyrrolidin-1-yl)benzamide] | 50 | 20.9 | 1700 | 11.4 | 10 | 2.9 |  |  | 6.4
6 | CCCCOC[C@@H]1C[C@@H](Oc2ccc(C(F)(F)F)cc2)CN1c1ccc(C(=O)N[C@@H](CO)c2ccc(S(=O)(=O)CC)cc2)cc1 [Example 28] |  |  |  |  |  |  |  |  | 13.3
7 | CCS(=O)(=O)c1ccc([C@H](CO)NC(=O)c2ccc(N3C[C@H](Oc4ccc(C(F)(F)F)cc4)C[C@H]3COCC3CC3)nc2)cc1 [Example 50] |  |  |  |  |  |  |  |  | 52
8 | CCC(F)(F)OC[C@@H]1C[C@H](Oc2ccc(C(F)(F)F)cc2)CN1c1ccc(C(=O)N[C@@H](CO)c2ccc(S(=O)(=O)CC)cc2)cc1 [Example 45] |  |  |  |  |  |  |  |  | 17
9 | CCS(=O)(=O)c1ccc([C@H](CO)NC(=O)c2ccc(N3C[C@H](Oc4ccc(C(F)(F)F)cc4)C[C@H]3COC3CCOCC3)cc2)cc1 [Example 34, N—((R)-1-(4-(ethylsulfonyl)phenyl)-2-hydroxyethyl)-4-((2S,4R)-2-(((tetrahydro-2H-pyran-4-yl)oxy)methyl)-4-(4-(trifluoromethyl)phenoxy)pyrrolidin-1-yl)benzamide] |  |  |  |  |  |  |  |  | 133
10 | CCS(=O)(=O)c1ccc([C@H](CO)NC(=O)c2ccc(N3C[C@H](Oc4ccc(C(F)(F)F)cc4)C[C@H]3CN3CCOC[C@@H]3C)cc2)cc1 [Example 35, N—((R)-1-(4-(ethylsulfonyl)phenyl)-2-hydroxyethyl)-4-((2S,4R)-2-(((S)-3-methylmorpholinyl)methyl)-4-(4-(trifluoromethyl)phenoxy)pyrrolidin-1-yl)benzamide] |  |  |  |  |  |  |  |  | 135
11 | CCS(=O)(=O)c1ccc(CNC(=O)c2ccc(N3CCC(N(C)c4ccc(C(F)(F)F)cc4)C3)cc2)cc1 (stereo not drawn) [Example 10, N-(4-(ethylsulfonyl)benzyl)-4-(3-(methyl(4-(trifluoromethyl)phenyl)amino)pyrrolidin-1-yl) benzamide] |  |  |  |  |  |  |  |  | 23
12 | CCC(F)(F)OC[C@@H]1C[C@H](Oc2ccc(C(F)(F)F)cc2)CN1c1ccc(C(=O)N[C@@H](CO)c2ccc(S(=O)(=O)CC)cn2)cn1 [Example 74] |  |  |  |  |  |  |  |  | 11
13 | CCS(=O)(=O)c1ccc([C@H](CCOP(=O)(O)O)NC(=O)c2ccc(N3C[C@@H](Oc4ccc(OC(F)(F)F)cc4)C[C@H]3COC(F)F)cc2)cc1 [Example 125, sodium (S)-3-(4-((2S,4S)-2-((difluoromethoxy)methyl)-4-(4-(trifluoromethoxy)phenoxy)pyrrolidin-1-yl)benzamino)-3-(4-(ethylsulfonyl)phenyl)propyl phosphate] |  |  |  |  |  |  |  |  | 140
14 | CCS(=O)(=O)c1ccc([C@H](CO)NC(=O)c2ccc(N3CC[C@H](Oc4ccc(C(F)(F)F)cc4)C3)c(F)c2)cc1 [Example 79, N—((R)-1-(4-(ethylsulfonyl)phenyl)-2-hydroxyethyl)-3-fluoro-4-((S)-3-(4-(trifluoromethyl)phenoxy)pyrrolidin-1-yl)benzamide] |  |  |  |  |  |  |  |  | 13
